Patent publication US8546579B2, “Bicycloheteroaryl compounds as P2X7 modulators and uses thereof” (Evotec (US) Inc., priority 2006, dated 2013)
pIC50: −log10 of the molar value.

Molecular target: T1, P2X7 receptor (Homo sapiens, UniProt Q99572)
T1 construct: host or cells: THP-1 cells differentiated with LPS and IFN-γ
T1 sequence (Q99572 1-595): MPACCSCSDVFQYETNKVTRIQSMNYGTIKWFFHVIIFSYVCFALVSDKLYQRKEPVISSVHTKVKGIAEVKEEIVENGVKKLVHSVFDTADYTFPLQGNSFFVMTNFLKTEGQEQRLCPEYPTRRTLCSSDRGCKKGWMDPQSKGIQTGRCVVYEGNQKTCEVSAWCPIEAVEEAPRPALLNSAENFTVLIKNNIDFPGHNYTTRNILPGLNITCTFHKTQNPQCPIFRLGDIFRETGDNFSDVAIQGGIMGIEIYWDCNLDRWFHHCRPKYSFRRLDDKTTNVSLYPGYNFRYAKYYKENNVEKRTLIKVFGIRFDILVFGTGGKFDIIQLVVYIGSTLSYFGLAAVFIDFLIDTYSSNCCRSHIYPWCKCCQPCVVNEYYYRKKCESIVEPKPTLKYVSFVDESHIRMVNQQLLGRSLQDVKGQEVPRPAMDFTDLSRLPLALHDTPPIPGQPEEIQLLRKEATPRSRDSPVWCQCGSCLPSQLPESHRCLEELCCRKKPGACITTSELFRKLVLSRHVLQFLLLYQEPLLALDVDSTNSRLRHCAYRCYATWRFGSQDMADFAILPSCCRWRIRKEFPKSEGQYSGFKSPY
Test: IL-1β release assay in differentiated THP-1 cells stimulated with BzATP (Example 9)
Assay type: cell-based
Set-up: inhibition: dose or concentration left out as unconfirmed
Details: for inhibition: THP-1, read-out: IL-1β % Inhib.; for inhibition at 0.1 µM: 0.1 μM compound, "*" class symbols, read-out: IL-1β % Inhib. ("*" symbols: at 0.1 μM); for inhibition at 0.1 µM / inhibition at 0.3 µM: differentiated THP-1 cells, BzATP 250 uM; for inhibition at 0.3 µM: 0.3 μM compound, "+" class symbols, read-out: IL-1β % Inhib. @ 0.3 μM; for pIC50: THP-1 cells, BzATP-stimulated IL-1β release, four parameter logistic fit
Method in brief: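 IC50 derived by four-parameter logistic fit of percent inhibition of IL-1β release, measured by ELISA after 45 min stimulation with 250 uM BzATP. Cells: THP-1 differentiated 16 h with 100 ng/mL LPS plus IFN-γ, LPS-primed 2 h, compound added 30 min beforehand.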

Row | inhibition [%] | inhibition at 0.1 µM [%] | inhibition at 0.3 µM [%] | pIC50 | SMILES
1 | 26 to 50 | – | – | – | COc1c(C)cc(C(=O)Nc2cccc3c(=O)n(Cc4ccc(OC(F)(F)F)cc4)ccc23)cc1C [Compound 1590]
2 | 0 to 25 | – | – | – | Cc1ccc(C(=O)Nc2cccc3c(=O)n(Cc4ccc(OC(F)(F)F)cc4)ccc23)cc1Cl [Compound 1591]
3 | 0 to 25 | – | – | – | Cc1cc(Cl)ccc1C(=O)Nc1cccc2c(=O)n(Cc3ccc(OC(F)(F)F)cc3)ccc12 [Compound 1592]
4 | 0 to 25 | – | – | – | O=C(CC1CC2CC[C@H]1C2)Nc1cccc2c(=O)n(Cc3ccc(OC(F)(F)F)cc3)ccc12 (stereo partly shown) [Compound 1593]
5 | 0 to 25 | – | – | – | O=C(Nc1cccc2c(=O)n(Cc3ccc(OC(F)(F)F)cc3)ccc12)[C@@]12C[C@@H]3C[C@@H](C[C@@H]1C3)C2 [Compound 1594]
6 | 0 to 25 | – | – | – | O=C(Nc1cccc2c(=O)n(Cc3ccc(OC(F)(F)F)cc3)ccc12)c1cccc2c1OCCO2 [Compound 1595]
7 | 0 to 25 | – | – | – | O=C(Nc1cccc2c(=O)n(Cc3ccc(OC(F)(F)F)cc3)ccc12)c1ccc2c(c1)OCCCO2 [Compound 1596]
8 | 0 to 25 | – | – | – | O=C(Cc1csc2ccccc12)Nc1cccc2c(=O)n(Cc3ccc(OC(F)(F)F)cc3)ccc12 [Compound 1597]
9 | – | 26 to 50 | – | – | Cc1c(Cl)cccc1C(=O)Nc1cccc2c(=O)n(Cc3ccc(OC(F)(F)F)cc3)ccc12 [Compound 1598]
10 | – | 0 to 25 | – | – | Cc1cc(C)cc(CC(=O)Nc2cccc3c(=O)n(Cc4ccc(OC(F)(F)F)cc4)ccc23)c1 [Compound 1599]
11 | – | 0 to 25 | – | – | O=C(Nc1cccc2c(=O)n(Cc3ccc(OC(F)(F)F)cc3)ccc12)C1C[C@@H]2CC[C@H]1C2 (stereo partly shown) [Compound 1600]
12 | – | 0 to 25 | – | – | COc1ccc(CC(=O)Nc2cccc3c(=O)n(Cc4ccc(OC(F)(F)F)cc4)ccc23)c(OC)c1 [Compound 1601]
13 | – | 0 to 25 | – | – | Cc1cc(C(=O)Nc2cccc3c(=O)n(Cc4ccc(OC(F)(F)F)cc4)ccc23)ccc1F [Compound 1602]
14 | – | 0 to 25 | – | – | O=C(CCc1ccc(Cl)cc1)Nc1cccc2c(=O)n(Cc3ccc(OC(F)(F)F)cc3)ccc12 [Compound 1603]
15 | – | 0 to 25 | – | – | CCOc1ccccc1CC(=O)Nc1cccc2c(=O)n(Cc3ccc(OC(F)(F)F)cc3)ccc12 [Compound 1604]
16 | – | 0 to 25 | – | – | COc1ccc(CC(=O)Nc2cccc3c(=O)n(Cc4ccc(OC(F)(F)F)cc4)ccc23)cc1C [Compound 1605]
17 | – | 0 to 25 | – | – | Cc1cccc(CCC(=O)Nc2cccc3c(=O)n(Cc4ccc(OC(F)(F)F)cc4)ccc23)c1 [Compound 1606]
18 | – | 0 to 25 | – | – | Cc1cccc(C(=O)Nc2cccc3c(=O)n(Cc4ccc(OC(F)(F)F)cc4)ccc23)c1Cl [Compound 1607]
19 | – | 0 to 25 | – | – | COc1ccc(C(=O)Nc2cccc3c(=O)n(Cc4ccc(OC(F)(F)F)cc4)ccc23)cc1C [Compound 1608]
20 | – | 0 to 25 | – | – | Cc1ccc(CCC(=O)Nc2cccc3c(=O)n(Cc4ccc(OC(F)(F)F)cc4)ccc23)c(C)c1 [Compound 1609]
21 | – | 0 to 25 | – | – | O=C(CCc1cccc(Cl)c1)Nc1cccc2c(=O)n(Cc3ccc(OC(F)(F)F)cc3)ccc12 [Compound 1610]
22 | – | – | 0 to 25 | 6.03 | CN(C)CCn1ccc2c(NC(=O)Cc3ccc(Cl)cc3C(F)(F)F)cccc2c1=O [Compound 1611]
23 | – | – | 0 to 25 | < 6.00 | CC(C)C(C(=O)Nc1cccc2c(=O)n(CCN(C)C)ccc12)c1ccc(Cl)cc1 (stereo not shown) [Compound 1612]
24 | – | – | 0 to 25 | < 6.00 | CN(C)CCn1ccc2c(NC(=O)Cc3ccccc3Br)cccc2c1=O [Compound 1613]

Row | inhibition [%] | inhibition at 0.1 µM [%] | inhibition at 0.3 µM [%] | pIC50 | SMILES
25 | – | – | 0 to 25 | < 6.00 | CN(C)CCn1ccc2c(NC(=O)C3(c4ccc(Cl)cc4)CCCC3)cccc2c1=O [Compound 1614]
26 | – | – | 0 to 25 | < 6.00 | CO[C@@](C(=O)Nc1cccc2c(=O)n(CCN(C)C)ccc12)(c1ccccc1)C(F)(F)F [Compound 1615]
27 | – | – | 0 to 25 | < 6.00 | CO[C@](C(=O)Nc1cccc2c(=O)n(CCN(C)C)ccc12)(c1ccccc1)C(F)(F)F [Compound 1616]
28 | – | – | 26 to 50 | 6.38 | CC(=O)OCCn1ccc2c(NC(=O)Cc3ccc(C(F)(F)F)cc3C(F)(F)F)cccc2c1=O [Compound 1617]
29 | – | – | 0 to 25 | < 6.00 | CN(C)CCn1ccc2c(NC(=O)Cc3ccc(C(F)(F)F)cc3C(F)(F)F)cccc2c1=O [Compound 1618]
30 | – | – | ≥ 76 | 7.17 | CC(C)(C)OC(=O)N1CCC[C@H]1Cn1ccc2c(NC(=O)CC3CCCCCC3)cccc2c1=O [Compound 1619]
31 | – | – | ≥ 76 | 7.39 | CC(C)(C)OC(=O)N1CCC[C@@H]1Cn1ccc2c(NC(=O)Cc3ccc(Cl)c(C(F)(F)F)c3)cccc2c1=O [Compound 1620]
32 | – | – | ≥ 76 | 8.16 | CC(C)(C)OC(=O)N1CCC[C@H]1Cn1ccc2c(NC(=O)Cc3ccc(Cl)c(C(F)(F)F)c3)cccc2c1=O [Compound 1621]
33 | – | – | 0 to 25 | < 6.00 | CC(C(N)=O)n1ccc2c(NC(=O)C3COc4cc(C(C)(C)C)ccc4O3)cccc2c1=O (stereo not shown) [Compound 1622]
34 | – | – | ≥ 76 | 8.03 | COCCn1ccc2c(NC(=O)Cc3ccc(Cl)c(C(F)(F)F)c3)cccc2c1=O [Compound 1623, 2-(4-Chloro-3-trifluoromethyl-phenyl)-N-[2-(2-methoxy-ethyl)-1-oxo-1,2-dihydro-isoquinolin-5-yl]-acetamide]
35 | – | – | 26 to 50 | 6.44 | O=C(Cc1ccc(Cl)c(C(F)(F)F)c1)Nc1cccc2c(=O)n(Cc3ccc(C(F)(F)F)nc3)ccc12 [Compound 1624, 2-(4-Chloro-3-trifluoromethyl-phenyl)-N-[1-oxo-2-(6-trifluoromethyl-pyridin-3-ylmethyl)-1,2-dihydro-isoquinolin-5-yl]-acetamide]
36 | – | – | 0 to 25 | < 6.00 | CS(=O)(=O)CCn1ccc2c(NC(=O)CC3(O)CCCCCC3)cccc2c1=O [Compound 1625]
37 | – | – | 0 to 25 | < 6.00 | O=C(Cc1cccc(C(F)(F)F)c1F)Nc1cccc2c(=O)n(Cc3ccc(C(F)(F)F)nc3)ccc12 [Compound 1626]
38 | – | – | 26 to 50 | 6.38 | O=C(Cc1cccc(C(F)(F)F)c1F)Nc1cccc2c(=O)n(Cc3ccccn3)ccc12 [Compound 1627]
39 | – | – | ≥ 76 | 7.25 | O=C(Cc1ccc(Cl)c(C(F)(F)F)c1)Nc1cccc2c(=O)n(Cc3ccccn3)ccc12 [Compound 1628, 2-(4-Chloro-3-trifluoromethyl-phenyl)-N-(1-oxo-2-pyridin-2-ylmethyl-1,2-dihydro-isoquinolin-5-yl)-acetamide]
40 | – | – | 26 to 50 | 6.34 | CC1(C)CCCC(O)(CC(=O)Nc2cccc3c(=O)n(CCS(C)(=O)=O)ccc23)C1 (stereo not shown) [Compound 1629]
41 | – | – | ≥ 76 | 6.96 | CS(=O)(=O)CCn1ccc2c(NC(=O)Cc3ccc(Cl)c(C(F)(F)F)c3)cccc2c1=O [Compound 1630, 2-(4-Chloro-3-trifluoromethyl-phenyl)-N-[2-(2-methanesulfonyl-ethyl)-1-oxo-1,2-dihydro-isoquinolin-5-yl]acetamide]
42 | – | – | 0 to 25 | < 6.00 | CC(C(=O)Nc1cccc2c(=O)n(CCS(C)(=O)=O)ccc12)c1ccc(Cl)cc1 (stereo not shown) [Compound 1631]
43 | – | – | 26 to 50 | 6.50 | CS(=O)(=O)CCn1ccc2c(NC(=O)Cc3ccc(Cl)c(Cl)c3)cccc2c1=O [Compound 1632]
44 | – | – | ≥ 76 | 7.59 | CC(c1ccccn1)n1ccc2c(NC(=O)Cc3cccc(C(F)(F)F)c3F)cccc2c1=O (stereo not shown) [Compound 1633, 2-(2-Fluoro-3-trifluoromethyl-phenyl)-N-[1-oxo-2-(1-pyridin-2-yl-ethyl)-1,2-dihydro-isoquinolin-5-yl]-acetamide]
45 | – | – | 51 to 75 | 6.58 | CC(c1ccccn1)n1ccc2c(NC(=O)Cc3ccc(C(F)(F)F)cc3)cccc2c1=O (stereo not shown) [Compound 1634]
46 | – | – | ≥ 76 | 6.95 | CC(c1ccccn1)n1ccc2c(NC(=O)Cc3ccc(C(F)(F)F)c(F)c3)cccc2c1=O (stereo not shown) [Compound 1635]
47 | – | 26 to 50 | – | – | CC(c1ccccn1)n1ccc2c(NC(=O)[C@H](C)c3ccc(Cl)c(Cl)c3)cccc2c1=O (stereo partly shown) [Compound 1636]
48 | – | 26 to 50 | – | – | CC(c1ccccn1)n1ccc2c(NC(=O)Cc3ccc(Cl)c(F)c3)cccc2c1=O (stereo not shown) [Compound 1637]
